Data set [1] relates to KP1005 (CTX-M-14). The experiment in a line: Aztreonam potentiation (MPC@4), KP1005. Type of data set: cell-based. Particulars: BLI with aztreonam at 4 μg/mL.
In data set [2] the test system is KP1009 (CTX-M-15). The experiment in a line: organism not typed. Type of data set: cell-based.
Data set [3] deals with ec302 (TEM-10). Briefly: Aztreonam potentiation (MPC@4), ec302. The data set is classed as cell-based. To be noted: BLI with aztreonam at 4 μg/mL.
Data set [4] has as its system KP1004 (KPC-2). Briefly: Aztreonam potentiation (MPC@4), KP1004. To be noted: BLI with aztreonam at 4 μg/mL. Type of data set: cell-based.
Data set [5] relates to ECL1002. The experiment in a line: Aztreonam potentiation (MPC@4), ECL1002. The data set is classed as cell-based. To be noted: BLI with aztreonam at 4 μg/mL.
Data set [6] relates to EC1010 (CMY-6). Briefly: organism not typed. Type of data set: cell-based.
The subject of data set [7] is KP1005 (CTX-M-14). Briefly: Tigemonam potentiation (MPC@4), KP1005. Particulars: BLI with tigemonam at 4 μg/mL. The data set is classed as cell-based.
The test system of data set [8] is KP1009 (CTX-M-15). Briefly: Tigemonam potentiation (MPC@4), KP1009. Type of data set: cell-based. To be noted: BLI with tigemonam at 4 μg/mL.
The test system of a further data set is ec308 (SHV-5). The experiment in a line: Tigemonam potentiation (MPC@4), ec308. Type of data set: cell-based.
In another data set the test system is KP1010 (SHV-12). Briefly: Tigemonam potentiation (MPC@4), KP1010. Type of data set: cell-based.
Data set [9] concerns ec302 (TEM-10). The experiment in a line: Tigemonam potentiation (MPC@4), ec302. The data set is classed as cell-based.
Data set [10] has as its system ECL1002. Briefly: Tigemonam potentiation (MPC@4), ECL1002. Type of data set: cell-based. To be noted: BLI with tigemonam at 4 μg/mL.
Data set [11] concerns EC1010 (CMY-6). The experiment in a line: Tigemonam potentiation (MPC@4), EC1010. The data set is classed as cell-based. Particulars: BLI with tigemonam at 4 μg/mL.
A further data set addresses CTX-M-14 (Escherichia coli, UniProt Q9L5C7). Briefly: Ki, nitrocefin cleavage by purified enzyme, CTX-M-14. Particulars: nitrocefin reporter substrate; read-out: Ki (CTX-M-14, NCF). The data set is classed as biochemical. In a few lines: (§1)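 Steps: enzyme plus inhibitor dilutions in reaction buffer; 10 min at room temperature; add nitrocefin; read absorbance at 490 nm each 10 sec for 10 min.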

In the next data set the target is SHV-12 (Klebsiella pneumoniae, UniProt P0AD64, E235K/G234S/L31Q). Briefly: Ki, nitrocefin cleavage by purified enzyme, SHV-12. Type of data set: biochemical. Particulars: nitrocefin reporter substrate; read-out: Ki (SHV-12, NCF). In a few lines: as §1
SHV-12, sequence (P0AD64 22-286 L31Q/G234S/E235K): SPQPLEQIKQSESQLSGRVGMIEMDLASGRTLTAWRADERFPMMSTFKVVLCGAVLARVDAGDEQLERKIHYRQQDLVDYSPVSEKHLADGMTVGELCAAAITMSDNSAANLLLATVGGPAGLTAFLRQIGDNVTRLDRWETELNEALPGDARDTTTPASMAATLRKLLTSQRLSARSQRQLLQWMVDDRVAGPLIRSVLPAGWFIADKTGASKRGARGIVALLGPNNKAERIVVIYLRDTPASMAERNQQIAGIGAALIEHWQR
The target of another data set is KPC-2 (Klebsiella pneumoniae, UniProt Q9F663). The experiment in a line: Ki, nitrocefin cleavage by purified enzyme, KPC-2. Particulars: nitrocefin reporter substrate; read-out: Ki (KPC-2, NCF). Type of data set: biochemical. In a few lines: as §1
KPC-2, sequence (Q9F663 25-293, looked up, species assumed): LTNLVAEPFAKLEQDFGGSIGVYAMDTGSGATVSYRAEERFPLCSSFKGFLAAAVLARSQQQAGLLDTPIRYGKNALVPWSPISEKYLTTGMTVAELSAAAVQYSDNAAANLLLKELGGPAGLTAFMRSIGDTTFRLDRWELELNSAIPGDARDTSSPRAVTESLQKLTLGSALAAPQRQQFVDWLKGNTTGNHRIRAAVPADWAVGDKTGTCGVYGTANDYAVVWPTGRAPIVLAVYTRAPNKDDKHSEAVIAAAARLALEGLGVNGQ
The next data set deals with P99 (Enterobacter cloacae, UniProt P05364). Briefly: Ki, nitrocefin cleavage by purified enzyme, P99. To be noted: nitrocefin reporter substrate; read-out: Ki (P99, NCF). Type of data set: biochemical. In short, it runs like this:
as §1

In another data set the target is Pa AmpC (Pseudomonas aeruginosa, UniProt P24735). The experiment in a line: Ki, nitrocefin cleavage by purified enzyme, Pa AmpC. Type of data set: biochemical. To be noted: nitrocefin reporter substrate; read-out: Ki (Pa AmpC, NCF). In a few lines:
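With nitrocefin serving as reporter, cleavage by purified enzyme was tracked at 490 nm every 10 sec for 10 min, following 10 min preincubation at room temperature with inhibitor at various concentrations, to obtain Ki.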

The next data set deals with OXA-48 (Klebsiella pneumoniae, UniProt Q6XEC0). The experiment in a line: Ki, nitrocefin cleavage by purified enzyme, OXA-48. To be noted: nitrocefin reporter substrate; read-out: Ki (OXA-48, NCF). The data set is classed as biochemical. In a few lines: as §1
OXA-48, sequence (Q6XEC0 23-265, looked up, species assumed): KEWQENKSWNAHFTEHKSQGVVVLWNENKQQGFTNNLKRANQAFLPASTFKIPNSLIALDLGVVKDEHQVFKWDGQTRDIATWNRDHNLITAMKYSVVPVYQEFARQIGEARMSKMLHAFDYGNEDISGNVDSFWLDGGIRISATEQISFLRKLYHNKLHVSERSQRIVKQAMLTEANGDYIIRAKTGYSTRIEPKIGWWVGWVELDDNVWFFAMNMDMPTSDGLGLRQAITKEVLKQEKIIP
The nature of data set [12]: Monomer content of pH adjusted aqueous solutions (LC-UV). To be noted: 1 mg/mL aqueous salt solution, pH adjusted to 7.6 to 8, LC-UV. The data set is classed as physicochemical. In a few lines:
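Aqueous solutions at 1.00, 10.0 or 100 mg/mL (active fraction) brought to pH 7.6–8 with acid or base, compound fully dissolved. Injected within half an hour of preparation onto C18 reversed-phase LC (0.1% TFA water / 0.085% TFA methanol gradient); UV detection at 220, 254 and 300 nm.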

Data set [13] concerns KP1004 (KPC-2). The experiment in a line: Biapenem potentiation (MPC@1), KP1004. To be noted: BLI with biapenem at 1 μg/mL.
In a further data set the test system is KP1086 (OXA-48). The experiment in a line: Biapenem potentiation (MPC@1), KP1086. To be noted: BLI with biapenem at 1 μg/mL.

A value given as a limit tells only on which side of the number the result lay.

CTX-M-14, sequence (Q9L5C7 29-291): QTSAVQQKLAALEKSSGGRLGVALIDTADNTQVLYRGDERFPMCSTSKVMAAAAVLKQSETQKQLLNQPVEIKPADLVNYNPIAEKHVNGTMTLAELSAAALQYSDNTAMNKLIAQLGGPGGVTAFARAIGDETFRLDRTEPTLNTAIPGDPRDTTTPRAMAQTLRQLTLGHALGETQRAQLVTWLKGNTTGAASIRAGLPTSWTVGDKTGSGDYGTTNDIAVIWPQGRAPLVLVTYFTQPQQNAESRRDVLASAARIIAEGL
Pa AmpC, sequence (P24735 27-397): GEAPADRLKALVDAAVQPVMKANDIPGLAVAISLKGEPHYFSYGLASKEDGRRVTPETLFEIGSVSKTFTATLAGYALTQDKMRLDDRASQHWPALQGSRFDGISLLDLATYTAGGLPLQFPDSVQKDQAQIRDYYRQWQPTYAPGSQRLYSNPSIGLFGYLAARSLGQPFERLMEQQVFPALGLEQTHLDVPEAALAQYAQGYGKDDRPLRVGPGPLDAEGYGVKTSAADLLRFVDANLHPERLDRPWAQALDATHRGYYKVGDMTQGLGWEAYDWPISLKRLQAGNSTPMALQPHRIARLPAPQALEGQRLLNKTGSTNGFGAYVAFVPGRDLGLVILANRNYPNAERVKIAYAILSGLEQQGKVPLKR
P99, sequence (P05364 21-381): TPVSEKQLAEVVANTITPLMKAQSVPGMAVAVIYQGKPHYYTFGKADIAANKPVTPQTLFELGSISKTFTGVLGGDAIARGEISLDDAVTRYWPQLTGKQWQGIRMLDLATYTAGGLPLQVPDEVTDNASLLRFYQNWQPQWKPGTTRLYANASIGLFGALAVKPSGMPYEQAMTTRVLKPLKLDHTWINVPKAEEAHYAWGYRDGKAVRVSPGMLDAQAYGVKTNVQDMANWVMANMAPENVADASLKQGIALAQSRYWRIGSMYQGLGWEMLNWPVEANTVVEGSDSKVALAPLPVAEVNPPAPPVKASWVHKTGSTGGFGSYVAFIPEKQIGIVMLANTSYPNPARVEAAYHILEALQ

One may read the Ki as a dissociation constant, usually derived from enzyme kinetics or from competition with a known ligand. Turning to `CSCC(=O)N[C@@H]1Cc2ccc(F)c(C(=O)O)c2OB1O` [Compound 31, (S)-7-fluoro-2-hydroxy-3-(2-(methylthio)acetamido)-3,4-dihydro-2H-benzo[e][1,2]oxaborinine-8-carboxylic acid], the “AZT MPC4 CTX-M-14 KP1005” value with KP1005 (CTX-M-14) [1] was “Y (MIC of 1 μg/mL to 10 μg/mL)”. Further, the “AZT MPC4 CTX-M-15 KP1009” value in the data set on KP1009 (CTX-M-15) [2] is given as “Y (key: X: MIC of less than 1 ng/mL; Y: MIC of 1 μg/mL to 10 μg/mL; Z: MIC of greater than 10 μg/mL)”. Moreover, in the data set on ec302 (TEM-10) [3], the “AZT MPC4 TEM-10 ec302” value was “Y (MIC of 1 μg/mL to 10 μg/mL)”. The “AZT MPC4 KPC-2 KP1004” value in the data set with KP1004 (KPC-2) [4] is listed as “Y (MIC of 1 μg/mL to 10 μg/mL)”. The “AZT MPC4 ECL1002” value with ECL1002 [5] was “Y (MIC of 1 μg/mL to 10 μg/mL)”. In addition, in the data set with EC1010 (CMY-6) [6], the “AZT MPC4 CMY-6 EC1010” value was “Y (key: X: MIC of less than 1 ng/mL; Y: MIC of 1 μg/mL to 10 μg/mL; Z: MIC of greater than 10 μg/mL)”. For the same molecule, the “TIG MPC4 CTX-M-14 KP1005” value with KP1005 (CTX-M-14) [7] is “Y (MIC of 1 μg/mL to 10 μg/mL)”. Moreover, the “TIG MPC4 CTX-M-15 KP1009” value in the data set on KP1009 (CTX-M-15) [8] is “Y (MIC of 1 μg/mL to 10 μg/mL)”. In the data set with ec308 (SHV-5), the “TIG MPC4 SHV-5 ec308” value is listed as “X (key: X: MIC of less than 1 μg/mL; Y: MIC of 1 μg/mL to 10 μg/mL; Z: MIC of greater than 10 μg/mL)”. Also, the “TIG MPC4 SHV-12 KP1010” value with KP1010 (SHV-12) is “X (key: X: MIC of less than 1 μg/mL; Y: MIC of 1 μg/mL to 10 μg/mL; Z: MIC of greater than 10 μg/mL)”. For the same molecule, the “TIG MPC4 TEM-10 ec302” value in the data set on ec302 (TEM-10) [9] is given as “Z (key: X: MIC of less than 1 ng/mL; Y: MIC of 1 μg/mL to 10 μg/mL; Z: MIC of greater than 10 μg/mL)”. Further, in the data set on ECL1002 [10], the “TIG MPC4 ECL1002” value is recorded as “X (MIC of less than 1 μg/mL)”. Moreover, the “TIG MPC4 CMY-6 EC1010” value in the data set with EC1010 (CMY-6) [11] is “Y (MIC of 1 μg/mL to 10 μg/mL)”. Also, the Ki at CTX-M-14 was 1 to 10 nM; on SHV-12, < 1 nM; on KPC-2, > 10 nM; on P99, > 10 nM; at Pa AmpC, > 10 nM; on OXA-48, 1 to 10 nM. Also, the “% Monomer in 1 mg/mL salt solution” value in [12] came to 99.7%. For the same molecule, in the data set on KP1004 (KPC-2) [13], the “BPM MPC1 KP1004 KPC-2” value was “X (MIC of less than 1 μg/mL)”. Further, the “BPM MPC1 OXA-48 KP1086” value with KP1086 (OXA-48) is on record as “Z (MIC of greater than 10 μg/mL)”.

`CSCC(=O)N[C@H]1Cc2ccc(Sc3nncn3C)c(C(=O)O)c2OB1O` [Compound 35, (R)-2-hydroxy-7-(4-methyl-4H-1,2,4-triazol-3-ylthio)-3-(2-(methylthio)acetamido)-3,4-dihydro-2H-benzo[e][1,2]oxaborinine-8-carboxylic acid]: the “AZT MPC4 CTX-M-14 KP1005” value with KP1005 (CTX-M-14) [1] is “Y (MIC of 1 μg/mL to 10 μg/mL)”. Further, in the data set with KP1009 (CTX-M-15) [2], the “AZT MPC4 CTX-M-15 KP1009” value was “Y (key: X: MIC of less than 1 ng/mL; Y: MIC of 1 μg/mL to 10 μg/mL; Z: MIC of greater than 10 μg/mL)”. Besides, the “AZT MPC4 TEM-10 ec302” value in the data set on ec302 (TEM-10) [3] is “Y (MIC of 1 μg/mL to 10 μg/mL)”. In the data set with KP1004 (KPC-2) [4], the “AZT MPC4 KPC-2 KP1004” value was “Y (MIC of 1 μg/mL to 10 μg/mL)”. In addition, in the data set with ECL1002 [5], the “AZT MPC4 ECL1002” value is listed as “Y (MIC of 1 μg/mL to 10 μg/mL)”. Besides, the “AZT MPC4 CMY-6 EC1010” value in the data set on EC1010 (CMY-6) [6] is listed as “Y (key: X: MIC of less than 1 ng/mL; Y: MIC of 1 μg/mL to 10 μg/mL; Z: MIC of greater than 10 μg/mL)”. In the data set on KP1005 (CTX-M-14) [7], the “TIG MPC4 CTX-M-14 KP1005” value is recorded as “Y (MIC of 1 μg/mL to 10 μg/mL)”. Moreover, the “TIG MPC4 CTX-M-15 KP1009” value in the data set with KP1009 (CTX-M-15) [8] was “Y (MIC of 1 μg/mL to 10 μg/mL)”. Further, the “TIG MPC4 SHV-5 ec308” value with ec308 (SHV-5) is given as “X (key: X: MIC of less than 1 μg/mL; Y: MIC of 1 μg/mL to 10 μg/mL; Z: MIC of greater than 10 μg/mL)”. The “TIG MPC4 SHV-12 KP1010” value in the data set on KP1010 (SHV-12) is on record as “X (key: X: MIC of less than 1 μg/mL; Y: MIC of 1 μg/mL to 10 μg/mL; Z: MIC of greater than 10 μg/mL)”. Besides, the “TIG MPC4 TEM-10 ec302” value with ec302 (TEM-10) [9] was “Y (key: X: MIC of less than 1 ng/mL; Y: MIC of 1 μg/mL to 10 μg/mL; Z: MIC of greater than 10 μg/mL)”. Besides, the “TIG MPC4 ECL1002” value in the data set with ECL1002 [10] is recorded as “Y (MIC of 1 μg/mL to 10 μg/mL)”. Also, the “TIG MPC4 CMY-6 EC1010” value in the data set on EC1010 (CMY-6) [11] is recorded as “Y (MIC of 1 μg/mL to 10 μg/mL)”. For the same molecule, the Ki on CTX-M-14 is < 1 nM; on SHV-12, < 1 nM; on KPC-2, > 10 nM; at P99, > 10 nM; at Pa AmpC it was > 10 nM; on OXA-48 it was < 1 nM. The “BPM MPC1 KP1004 KPC-2” value in the data set with KP1004 (KPC-2) [13] was “X (MIC of less than 1 μg/mL)”. Also, in the data set on KP1086 (OXA-48), the “BPM MPC1 OXA-48 KP1086” value is “Z (MIC of greater than 10 μg/mL)”.
